Tests used:
[1] = system: women requesting emergency contraception after unprotected intercourse; test: Meta-analysis of Phase II and Phase III emergency contraception studies: pregnancy rate by WHO BMI class; format: in vivo; conditions: for Odds Ratio [95% CI]: ulipristal acetate vs levonorgestrel
Procedure: The effect of BMI in pooled phase III studies was assessed by comparing pregnancy rates among sub-groups of the study populations according to WHO weight classes. Pregnancy rates increased starting from BMI>25, and for women with a BMI>30, the 95% CI of the observed pregnancy rate overlapped with the expected pregnancy rate. […] This Phase II, prospective, multicenter, randomized, double-blind study was performed to compare the efficacy of a single 50 mg dose of ulipristal acetate (unmicronized in gelatine capsule) with two 0.75 mg doses of levonorgestrel used as an emergency postcoital contraceptive within 72 hours of unprotected intercourse. The study was carried out in seven sites in seven different states in the United States. Women (aged ≧18 years old) not using hormonal contraception and who requested emergency contraception within 72 hours (3 days) after unprotected coitus defined by lack of contraceptive use, condom breakage or other barrier contraceptive method failure were included. Subjects were required to have a history of regular menstrual cycles (mean length of 24-42 days with intra-individual variation of ±5 days). At least one normal menstrual cycle (two menses) was required after delivery, abortion, or discontinuation of hormonal contraception. Subjects were excluded from the study if they were pregnant at screening or enrollment (assessed by a high-sensitivity urine pregnancy test), pregnant or breastfeeding within the 2 months before screening, using an intra-uterine device (IUD) or female or male sterilization as a contraceptive method, uncertain about the date of the last menstrual period (±3 days), had been nauseated or vomited in the 2 weeks before screening, had used oral glucocorticoid replacement therapy in the year before the screening, or were currently enrolled in any other investigational trial. Each woman returned for a follow-up visit 5 to 7 days after the expected onset of their next menstrual period and a high-sensitivity urine pregnancy test was performed. The primary objective was to compare the efficacy, as determined by pregnancy prevention, of 50 mg ulipristal acetate and levonorgestrel used as an emergency postcoital contraceptive within 72 hours of unprotected intercourse. […] This was a prospective, single-blind (subject and sponsor blind, investigator not blind), randomized, multicenter, 2-arm parallel comparative study designed to evaluate the efficacy, safety and tolerability of a single dose of ulipristal acetate (30 mg) compared to levonorgestrel (1.5 mg) administered for EC within 120 hours after unprotected intercourse. It was performed in 10 centers in Europe and 25 centers in the US. Women (aged ≧16 years), with regular menstrual cycles (between 24 and 35 days and intra-individual variations less than or equal to 5 days), who presented for EC within 120 hours after unprotected intercourse at a participating study site and who met the inclusion/exclusion criteria were enrolled into the study after they signed informed consent form. Subjects were excluded from the study in case of ongoing pregnancy or breast-feeding or current use of hormonal contraception or IUD. The study medication (ulipristal acetate 30 mg or levonorgestrel 1.5 mg) was administered according to a random allocation procedure generated electronically. Treatment was administered orally immediately after all eligibility criteria (including negative urine pregnancy test) had been verified. […] The primary objective of the study was to provide evidence that the pregnancy rate observed after taking ulipristal acetate (30 mg) within 72 hours of unprotected intercourse is lower than the expected pregnancy rate in the absence of EC. […]

[2] = used within 72 hours of UPI; cited from earlier work
[3] = in vivo; cited from earlier work
[4] = BMI class (WHO) Normal weight (18.5 to 24.99), N=2087
[5] = BMI class (WHO) Obese grade I (30 to 34.99), N=285
[6] = BMI class (WHO) Obese grade II (35 to 39.99), N=107
[7] = BMI class (WHO) Obese grade III (≧40), N=77
[8] = BMI class (WHO) Overweight (25 to 29.99), N=744
[9] = BMI class (WHO) Underweight (<18.5), N=145
[10] = grouped BMI class Obese II and more, N=184
[11] = grouped BMI class Overweight & Obese I, N=1029
[12] = grouped BMI class Underweight & Normal, N=2232

SMILES | Pregnancy rate [1, 4] | Pregnancy rate [1, 5] | Pregnancy rate [1, 6] | Pregnancy rate [1, 7] | Pregnancy rate [1, 8] | Pregnancy rate [1, 9] | Pregnancy rate [1, 10] | Pregnancy rate [1, 11] | Pregnancy rate [1, 12] | efficacy by BMI group ([1]; obese grade II (BMI 35 and above) subjects) | Odds Ratio [95% CI] ([1]; Obese II and more, CI [0.23, 4.44], NS) | Odds Ratio [95% CI] ([1]; Overweight & Obese I, CI [0.11, 0.74], p = 0.0073) | Odds Ratio [95% CI] ([1]; Underweight & Normal, CI [0.37, 1.73], NS) | efficacy by BMI group ([1]; underweight and normal (BMI below 25) and overweight and obese grade I (BMI 25-34.99) subjects) | risk of pregnancy divided by (ulipristal acetate versus levonorgestrel) ([1]; women overweight or with grade I obesity (BMI 25-34.99), p=0.0073) | efficacy versus levonorgestrel ([1]; women with a BMI>25) | efficacy for preventing pregnancy versus levonorgestrel [2] | effect on ovulation [3]
CC(=O)O[C@]1(C(C)=O)CC[C@H]2[C@@H]3CCC4=CC(=O)CCC4=C3[C@@H](c3ccc(N(C)C)cc3)C[C@@]21C [Ulipristal acetate, 17α-acetoxy-11β-[4-N,N-dimethylamino-phenyl)-19-norpregna-4,9-diene-3,20-dione] | 1.16% | 1.47% | 3.64% | 5.56% | 1.06% | 0% | 4.40% | 1.17% | 1.08% | decreased | 1.02 | 0.31 | 0.81 | remained constant | 3 | significantly more effective than levonorgestrel | as efficacious as levonorgestrel | inhibits or delays ovulation in a dose-dependent fashion
C#C[C@]1(O)CC[C@H]2[C@@H]3CCC4=CC(=O)CC[C@@H]4[C@H]3CC[C@@]21CC [Levonorgestrel, levonorgestrel] | 1.33% | 6.71% | 3.85% | 4.88% | 2.45% | 1.43% | 4.30% | 3.68% | 1.34% | – | – | – | – | – | – | – | – | –
